What was measured:
[1] = Deliquescence, swelling and dissolution in CO2 in a high-pressure view cell near room temperature; type: physicochemical; settings: for solubility / miscibility in liquid CO2: BGLU at 23.0° C., 60.5 bar
Source text: The interaction of BGLU in carbon dioxide was examined in a high-pressure view cell. The BGLU was exposed to carbon dioxide at near room temperature and a pressure of from 35 to 40 bar.
The procedure according to Example 1 was repeated except that the carbon dioxide pressure was 55.9 bar. A solid to liquid transition (i.e., deliquescence) of the BGLU was observed. […] See FIG. 3, Panel (C) and FIG. 3, Panel (D). Upon reaching liquid-vapor equilibrium pressure, the liquid carbon dioxide formed a separate layer on top of the viscous melt containing carbon dioxide.
BGLU is a white solid that melts at 132° C. under atmospheric pressure conditions (FIG. 3, Panel (A)). However, as BGLU is exposed to CO2 near room temperature (23.0° C.) in a conventional high-pressure view cell, it absorbs CO2 and becomes “wetted” with CO2 at a pressure of 35-40 bar. The white solid appears as a salt does in a humid environment. Furthermore, at a gaseous CO2 pressure of 55.9 bar a solid-to-liquid transition (deliquescence) occurs (FIG. 3, Panel (B)). This is analogous to the deliquescence of hygroscopic materials absorbing atmospheric moisture. […] Upon reaching the liquid-vapor equilibrium pressure, the liquid CO2 forms a separate layer on top of the viscous melt containing CO2. However, the melt easily mixes with the upper layer of liquid CO2 on stirring and forms a single-phase liquid mixture in contact with the gaseous CO2 phase (FIG. 3, Panel (E)). Further addition of CO2 only dilutes this liquid phase (FIG. 3F). Although, CO2-induced swelling (Rover et al., (1999) Macromolecules 32: 8965-8973) and CO2-assisted melting point depression (Zhang & Handa, (1997) Macromolecules 30: 8505-8507.) have been reported in polymers by sorption of CO2 under high pressures, the materials are not readily miscible in liquid and supercritical CO2, indicating the lack of a significant attractive interaction.

[2] = Solubility and cloud-point behaviour in supercritical CO2 at 40 °C; type: physicochemical; settings: for miscibility with CO2 from cloud-point data: scCO2, 40.0° C., relatively low pressures, up to 30% (wt); for solubility behaviour in supercritical CO2: supercritical CO2, 40° C.
Experimental: The solubility of BGLU and AGLU in supercritical carbon dioxide were examined at 40° C. […] The behavior is illustrated in FIG. 3. At the cloud point pressure, phase separation commences between the supercritical carbon dioxide and the sugar ester melt. Upon lowering the pressure, the material reappears in the solid state (see FIG. 4).
The cloud-point pressures of these systems in scCO2 were examined at 40.0° C. As in the subcritical case, initially the solid melts and swells (for AGLU and BGLU) and all three peracetylated sugars readily go into a single-phase, scCO2 system. A plot of the cloud-point pressure versus the weight percent for AGLU, BGLU, and BGAL dissolved in supercritical CO2 at 40.0° C. is given in FIG. 4. At the cloud-point pressure, phase separation begins between scCO2 and the sugar ester. Upon lowering the pressure, the material reappears in the solid state. No cloud-point measurements were made above 30% (wt) due to limitations arising from the volume of the view cell and the rapid swelling of the sample in the cases of AGLU and BGLU.

Row | SMILES | deliquescence in CO2 ([1]; contact with CO2) | solubility / miscibility in liquid CO2 [1] | miscibility with CO2 from cloud-point data [2] | solubility behaviour in supercritical CO2 [2] | deliquescence point, amount lower than that of BGLU ([1]; difference relative to BGLU) | concentration in the CO2-induced melt ([1]; approximate estimate, melt can be diluted with liquid or scCO2 in any proportion) | swelling of the melt on CO2 absorption ([1]; changes in gaseous CO2 pressure of only 2 and 3 bar above deliquescence pressure) | gaseous CO2 pressure at which solid-to-liquid transition (deliquescence) occurs ([1]; gaseous CO2, 23.0° C., high-pressure view cell) | CO2 pressure at which the solid absorbs CO2 and becomes wetted ([1]; near room temperature (23.0° C.))
1 | CC(=O)OC[C@H]1O[C@@H](OC(C)=O)[C@H](OC(C)=O)[C@@H](OC(C)=O)[C@H]1OC(C)=O [BGAL, beta 1,2,3,4,6-pentaacetyl β-D-galactose] | does not exhibit deliquescence | readily soluble | – | – | – | – | – | – | –
2 | CC(=O)OC[C@H]1O[C@H](OC(C)=O)[C@H](OC(C)=O)[C@@H](OC(C)=O)[C@@H]1OC(C)=O [AGLU, alpha 1,2,3,4,6-pentaacetyl-D-glucose] | – | – | complete miscibility | melted, swelled, and readily dissolved | 6-7 bar | – | – | – | –
3 | CC(=O)OC[C@H]1O[C@@H](OC(C)=O)[C@H](OC(C)=O)[C@@H](OC(C)=O)[C@@H]1OC(C)=O [BGLU, beta 1,2,3,4,6-pentaacetyl-D-glucose] | – | complete miscibility | complete miscibility | melted, swelled, and readily dissolved | – | more than 80 wt % | swells to many times its original volume | 55.9 bar | 35-40 bar

Reference: patent US20030072716A1, “Renewable, carbohydrate based CO2-philes” (priority 2001, published 2003)
